Laboratory results as given in ChEMBL document CHEMBL1145312, “Structure-activity relationships of triazolopyridine oxazole p38 inhibitors: identification of candidates for clinical development” (Bioorg Med Chem Lett, 2006).

Columns and labels:
[1] = biological target: Dual specificity mitogen-activated protein kinase kinase 1 (Homo sapiens, UniProt Q02750); assay: Inhibition of MKK1
[2] = biological target: T1, MAP kinase-activated protein kinase 5 (Homo sapiens, UniProt Q8IW41); assay: Inhibition of PRAK
T1 sequence (Q8IW41 whole entry): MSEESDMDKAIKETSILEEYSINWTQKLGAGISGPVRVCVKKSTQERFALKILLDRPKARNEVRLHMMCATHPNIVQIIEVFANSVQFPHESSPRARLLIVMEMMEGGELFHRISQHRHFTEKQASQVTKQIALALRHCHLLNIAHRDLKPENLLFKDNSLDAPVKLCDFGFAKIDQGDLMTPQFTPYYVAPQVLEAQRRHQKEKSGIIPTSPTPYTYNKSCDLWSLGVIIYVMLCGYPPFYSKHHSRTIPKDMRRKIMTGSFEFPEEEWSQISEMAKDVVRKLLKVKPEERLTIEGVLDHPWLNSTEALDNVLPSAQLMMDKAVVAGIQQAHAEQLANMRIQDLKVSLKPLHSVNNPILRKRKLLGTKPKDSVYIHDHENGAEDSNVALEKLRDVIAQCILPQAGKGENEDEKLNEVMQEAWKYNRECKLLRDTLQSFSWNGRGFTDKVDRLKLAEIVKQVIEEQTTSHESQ

[3] = biological target: AMP-activated protein kinase, AMPK; assay: Inhibition of AMPK; type: protein-complex assay
[4] = biological target: Ribosomal protein S6 kinase alpha-5 (Homo sapiens, UniProt O75582); assay: Inhibition of MSK1
[5] = biological target: Mitogen-activated protein kinase 14 (Homo sapiens, UniProt Q16539); assay: Inhibition of p38alpha
Homo sapiens = species: Homo sapiens; assay: Inhibition of LPS-induced TNFalpha production in human whole blood; type: functional, organism-based
[6] = biological target: Ribosomal protein S6 kinase (P70S6K) (Homo sapiens, UniProt P23443+Q9UBS0); assay: Inhibition of P70S6K; type: protein-complex assay
[7] = biological target: Tyrosine-protein kinase CSK (Homo sapiens, UniProt P41240); assay: Inhibition of CSK
Monocyte = assay: Inhibition of LPS-induced TNFalpha production in human monocytes; type: functional, cell-based
[8] = biological target: RAC-alpha serine/threonine-protein kinase (Homo sapiens, UniProt P31749); assay: Inhibition of PKBalpha
[9] = Inhibition of PI3K
[10] = Inhibition of phosphorylase kinase
[11] = biological target: T2, 3-phosphoinositide-dependent protein kinase 1 (Homo sapiens, UniProt O15530); assay: Inhibition of PDK1
T2 sequence (O15530 whole entry): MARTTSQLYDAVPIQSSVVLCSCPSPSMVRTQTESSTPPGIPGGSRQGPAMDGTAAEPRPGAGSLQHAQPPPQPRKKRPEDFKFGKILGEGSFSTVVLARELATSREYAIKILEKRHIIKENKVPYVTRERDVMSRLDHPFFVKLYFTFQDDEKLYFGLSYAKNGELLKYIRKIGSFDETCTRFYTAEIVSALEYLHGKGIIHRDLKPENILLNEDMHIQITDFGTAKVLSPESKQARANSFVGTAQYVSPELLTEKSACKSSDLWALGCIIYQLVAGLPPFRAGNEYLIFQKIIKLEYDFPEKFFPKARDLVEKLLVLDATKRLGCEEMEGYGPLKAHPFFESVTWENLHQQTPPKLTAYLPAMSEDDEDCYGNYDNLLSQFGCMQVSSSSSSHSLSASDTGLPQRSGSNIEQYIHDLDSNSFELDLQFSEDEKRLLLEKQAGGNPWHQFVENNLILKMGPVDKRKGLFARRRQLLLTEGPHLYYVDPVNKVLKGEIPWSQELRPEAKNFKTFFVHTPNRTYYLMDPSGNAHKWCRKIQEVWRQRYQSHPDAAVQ

[12] = Inhibition of PKC
[13] = biological target: Rho-associated protein kinase 2 (Homo sapiens, UniProt O75116); assay: Inhibition of ROCK2
[14] = biological target: T3, Mitogen-activated protein kinase 12 (Homo sapiens, UniProt P53778); assay: Inhibition of p38-gamma
T3 sequence (P53778 whole entry): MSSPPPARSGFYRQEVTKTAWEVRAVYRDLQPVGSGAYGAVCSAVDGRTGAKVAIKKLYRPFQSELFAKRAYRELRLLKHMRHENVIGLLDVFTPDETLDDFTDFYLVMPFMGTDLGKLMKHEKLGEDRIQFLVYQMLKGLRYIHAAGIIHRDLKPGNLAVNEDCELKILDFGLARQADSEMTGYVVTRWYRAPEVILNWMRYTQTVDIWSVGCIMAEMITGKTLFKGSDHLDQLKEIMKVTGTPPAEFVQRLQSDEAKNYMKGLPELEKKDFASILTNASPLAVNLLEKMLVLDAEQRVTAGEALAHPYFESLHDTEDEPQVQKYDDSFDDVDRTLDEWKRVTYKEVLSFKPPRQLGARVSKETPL

[15] = biological target: T4, Serine/threonine-protein kinase Sgk1 (Homo sapiens, UniProt O00141); assay: Inhibition of SGK
T4 sequence (O00141 whole entry): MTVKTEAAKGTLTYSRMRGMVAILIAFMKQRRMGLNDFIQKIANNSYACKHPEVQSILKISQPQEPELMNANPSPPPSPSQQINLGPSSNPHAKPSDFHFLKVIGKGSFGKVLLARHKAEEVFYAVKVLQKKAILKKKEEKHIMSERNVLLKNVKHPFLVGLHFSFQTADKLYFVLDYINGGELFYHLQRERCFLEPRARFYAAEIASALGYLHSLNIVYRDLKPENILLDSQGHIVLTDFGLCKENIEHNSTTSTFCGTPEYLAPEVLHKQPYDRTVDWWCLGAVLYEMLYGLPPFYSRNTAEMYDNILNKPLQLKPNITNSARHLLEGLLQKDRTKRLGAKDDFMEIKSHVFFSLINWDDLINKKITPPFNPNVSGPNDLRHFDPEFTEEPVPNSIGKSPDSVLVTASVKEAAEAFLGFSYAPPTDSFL

[16] = biological target: Dual specificity tyrosine-phosphorylation-regulated kinase 1A (Homo sapiens, UniProt Q13627); assay: Inhibition of DYRK1a
[17] = biological target: Cyclin-dependent kinase 2 (Homo sapiens, UniProt P24941); assay: Inhibition of CDK2
[18] = biological target: Glycogen synthase kinase-3 beta (Homo sapiens, UniProt P49841); assay: Inhibition of GSK3-beta
[19] = biological target: Ribosomal protein S6 kinase alpha-1 (Homo sapiens, UniProt Q15418); assay: Inhibition of MAPKAP-K1a
[20] = biological target: Mitogen-activated protein kinase 1 (Homo sapiens, UniProt P28482); assay: Inhibition of ERK2
[21] = biological target: Tyrosine-protein kinase Lck (Homo sapiens, UniProt P06239); assay: Inhibition of Lck
Chain of Tyrosine-protein kinase Lck (P06239 whole entry): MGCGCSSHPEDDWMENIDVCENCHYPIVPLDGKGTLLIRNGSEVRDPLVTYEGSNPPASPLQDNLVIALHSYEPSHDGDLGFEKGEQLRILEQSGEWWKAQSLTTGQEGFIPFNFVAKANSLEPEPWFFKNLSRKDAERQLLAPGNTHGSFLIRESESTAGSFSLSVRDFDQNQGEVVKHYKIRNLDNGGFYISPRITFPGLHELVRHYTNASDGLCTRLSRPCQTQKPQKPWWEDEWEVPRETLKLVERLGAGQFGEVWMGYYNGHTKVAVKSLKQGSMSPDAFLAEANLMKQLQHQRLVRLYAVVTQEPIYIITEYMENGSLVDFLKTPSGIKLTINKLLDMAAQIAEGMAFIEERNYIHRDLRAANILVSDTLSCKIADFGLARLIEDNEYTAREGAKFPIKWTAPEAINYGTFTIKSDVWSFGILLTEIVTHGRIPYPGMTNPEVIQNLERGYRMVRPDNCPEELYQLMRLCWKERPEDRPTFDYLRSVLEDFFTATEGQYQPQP

Chain of RAC-alpha serine/threonine-protein kinase (P31749 whole entry): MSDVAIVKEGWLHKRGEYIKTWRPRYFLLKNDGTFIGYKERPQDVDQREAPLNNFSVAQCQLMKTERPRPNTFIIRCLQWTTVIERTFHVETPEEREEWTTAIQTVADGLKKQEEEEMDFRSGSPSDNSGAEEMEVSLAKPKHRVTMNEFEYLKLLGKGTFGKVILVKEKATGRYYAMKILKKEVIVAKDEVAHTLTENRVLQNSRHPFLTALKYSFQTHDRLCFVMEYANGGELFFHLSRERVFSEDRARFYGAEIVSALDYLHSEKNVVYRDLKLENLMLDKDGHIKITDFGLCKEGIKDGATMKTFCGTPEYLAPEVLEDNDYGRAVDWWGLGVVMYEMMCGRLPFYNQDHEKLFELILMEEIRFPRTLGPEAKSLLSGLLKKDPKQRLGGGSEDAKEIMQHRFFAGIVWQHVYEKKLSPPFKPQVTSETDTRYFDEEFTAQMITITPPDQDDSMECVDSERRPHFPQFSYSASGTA
Chain of Dual specificity mitogen-activated protein kinase kinase 1 (Q02750 whole entry): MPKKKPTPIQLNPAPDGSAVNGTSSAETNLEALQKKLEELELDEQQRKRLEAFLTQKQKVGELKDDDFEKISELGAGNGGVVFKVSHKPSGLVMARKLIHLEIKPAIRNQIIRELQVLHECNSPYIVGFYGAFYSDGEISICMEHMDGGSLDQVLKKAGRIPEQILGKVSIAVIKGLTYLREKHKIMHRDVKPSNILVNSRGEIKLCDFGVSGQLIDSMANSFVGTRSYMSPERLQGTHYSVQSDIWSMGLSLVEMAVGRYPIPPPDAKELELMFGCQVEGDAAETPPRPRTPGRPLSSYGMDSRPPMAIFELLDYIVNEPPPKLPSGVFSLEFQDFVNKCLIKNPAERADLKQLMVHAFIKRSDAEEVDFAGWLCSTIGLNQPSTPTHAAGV
Chain of Ribosomal protein S6 kinase alpha-1 (Q15418 whole entry): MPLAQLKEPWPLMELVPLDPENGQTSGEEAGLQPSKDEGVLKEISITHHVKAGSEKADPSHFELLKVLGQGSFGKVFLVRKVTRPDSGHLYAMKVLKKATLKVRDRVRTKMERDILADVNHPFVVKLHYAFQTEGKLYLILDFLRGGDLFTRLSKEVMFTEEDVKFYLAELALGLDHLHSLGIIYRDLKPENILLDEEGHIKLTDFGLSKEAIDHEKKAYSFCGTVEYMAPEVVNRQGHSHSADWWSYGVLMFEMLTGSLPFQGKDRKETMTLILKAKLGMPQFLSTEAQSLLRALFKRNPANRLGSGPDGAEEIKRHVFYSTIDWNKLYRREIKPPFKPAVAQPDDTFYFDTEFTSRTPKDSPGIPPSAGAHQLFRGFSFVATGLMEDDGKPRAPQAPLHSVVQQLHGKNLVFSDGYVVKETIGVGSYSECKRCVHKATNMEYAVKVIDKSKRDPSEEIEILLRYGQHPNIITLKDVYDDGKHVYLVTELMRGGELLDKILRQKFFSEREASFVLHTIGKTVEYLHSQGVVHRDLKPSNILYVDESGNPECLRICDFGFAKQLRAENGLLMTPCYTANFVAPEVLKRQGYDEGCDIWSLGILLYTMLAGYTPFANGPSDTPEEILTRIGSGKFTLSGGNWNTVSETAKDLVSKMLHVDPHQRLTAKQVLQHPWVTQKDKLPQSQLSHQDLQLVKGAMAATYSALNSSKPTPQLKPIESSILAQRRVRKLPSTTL
Chain of Mitogen-activated protein kinase 1 (P28482 whole entry): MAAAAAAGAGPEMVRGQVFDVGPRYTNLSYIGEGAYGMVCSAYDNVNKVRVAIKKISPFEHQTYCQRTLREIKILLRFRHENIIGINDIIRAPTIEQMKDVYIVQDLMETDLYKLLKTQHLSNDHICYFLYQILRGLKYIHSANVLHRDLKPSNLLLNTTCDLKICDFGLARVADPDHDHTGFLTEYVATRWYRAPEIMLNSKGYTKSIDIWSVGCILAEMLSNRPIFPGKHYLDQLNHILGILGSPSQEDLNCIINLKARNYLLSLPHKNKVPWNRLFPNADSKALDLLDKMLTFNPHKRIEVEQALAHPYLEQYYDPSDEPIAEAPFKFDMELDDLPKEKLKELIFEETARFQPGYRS
Chain of Mitogen-activated protein kinase 14 (Q16539 whole entry): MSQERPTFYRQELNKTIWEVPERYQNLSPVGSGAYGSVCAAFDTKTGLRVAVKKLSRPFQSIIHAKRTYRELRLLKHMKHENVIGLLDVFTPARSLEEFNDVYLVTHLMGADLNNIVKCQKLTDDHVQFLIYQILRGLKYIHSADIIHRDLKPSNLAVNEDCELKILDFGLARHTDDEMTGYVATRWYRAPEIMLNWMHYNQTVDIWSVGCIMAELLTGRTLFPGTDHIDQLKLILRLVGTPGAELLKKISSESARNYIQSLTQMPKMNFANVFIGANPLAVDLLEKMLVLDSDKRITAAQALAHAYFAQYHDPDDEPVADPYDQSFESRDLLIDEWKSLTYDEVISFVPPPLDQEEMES
Chain of Ribosomal protein S6 kinase (P70S6K) (Q9UBS0 whole entry): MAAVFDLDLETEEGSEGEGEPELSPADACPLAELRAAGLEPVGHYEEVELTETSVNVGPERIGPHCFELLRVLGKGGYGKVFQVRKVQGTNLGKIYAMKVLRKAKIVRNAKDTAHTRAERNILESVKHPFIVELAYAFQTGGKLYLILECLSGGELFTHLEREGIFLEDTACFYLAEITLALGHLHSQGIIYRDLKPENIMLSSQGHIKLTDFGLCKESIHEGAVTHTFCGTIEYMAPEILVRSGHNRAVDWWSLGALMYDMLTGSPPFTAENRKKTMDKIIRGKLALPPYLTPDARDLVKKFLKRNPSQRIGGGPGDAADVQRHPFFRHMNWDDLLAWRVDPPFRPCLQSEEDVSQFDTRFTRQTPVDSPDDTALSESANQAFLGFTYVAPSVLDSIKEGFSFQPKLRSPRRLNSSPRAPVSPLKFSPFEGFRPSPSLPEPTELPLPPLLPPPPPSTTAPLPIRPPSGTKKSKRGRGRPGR
Chain of Ribosomal protein S6 kinase (P70S6K) (P23443 whole entry): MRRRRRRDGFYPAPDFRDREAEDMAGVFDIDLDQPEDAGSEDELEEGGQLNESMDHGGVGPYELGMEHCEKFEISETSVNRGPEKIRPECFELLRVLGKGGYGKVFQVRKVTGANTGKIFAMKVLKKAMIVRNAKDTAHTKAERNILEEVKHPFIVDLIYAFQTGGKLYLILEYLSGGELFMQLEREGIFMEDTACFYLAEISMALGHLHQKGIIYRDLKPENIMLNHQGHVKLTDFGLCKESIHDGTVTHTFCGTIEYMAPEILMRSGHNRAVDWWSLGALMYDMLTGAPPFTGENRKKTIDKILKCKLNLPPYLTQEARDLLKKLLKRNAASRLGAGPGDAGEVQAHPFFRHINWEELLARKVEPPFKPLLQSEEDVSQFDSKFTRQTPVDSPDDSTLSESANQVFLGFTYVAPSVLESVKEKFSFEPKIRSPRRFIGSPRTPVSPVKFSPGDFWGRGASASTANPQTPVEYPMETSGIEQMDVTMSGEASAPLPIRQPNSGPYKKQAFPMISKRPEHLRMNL
Chain of Ribosomal protein S6 kinase alpha-5 (O75582 whole entry): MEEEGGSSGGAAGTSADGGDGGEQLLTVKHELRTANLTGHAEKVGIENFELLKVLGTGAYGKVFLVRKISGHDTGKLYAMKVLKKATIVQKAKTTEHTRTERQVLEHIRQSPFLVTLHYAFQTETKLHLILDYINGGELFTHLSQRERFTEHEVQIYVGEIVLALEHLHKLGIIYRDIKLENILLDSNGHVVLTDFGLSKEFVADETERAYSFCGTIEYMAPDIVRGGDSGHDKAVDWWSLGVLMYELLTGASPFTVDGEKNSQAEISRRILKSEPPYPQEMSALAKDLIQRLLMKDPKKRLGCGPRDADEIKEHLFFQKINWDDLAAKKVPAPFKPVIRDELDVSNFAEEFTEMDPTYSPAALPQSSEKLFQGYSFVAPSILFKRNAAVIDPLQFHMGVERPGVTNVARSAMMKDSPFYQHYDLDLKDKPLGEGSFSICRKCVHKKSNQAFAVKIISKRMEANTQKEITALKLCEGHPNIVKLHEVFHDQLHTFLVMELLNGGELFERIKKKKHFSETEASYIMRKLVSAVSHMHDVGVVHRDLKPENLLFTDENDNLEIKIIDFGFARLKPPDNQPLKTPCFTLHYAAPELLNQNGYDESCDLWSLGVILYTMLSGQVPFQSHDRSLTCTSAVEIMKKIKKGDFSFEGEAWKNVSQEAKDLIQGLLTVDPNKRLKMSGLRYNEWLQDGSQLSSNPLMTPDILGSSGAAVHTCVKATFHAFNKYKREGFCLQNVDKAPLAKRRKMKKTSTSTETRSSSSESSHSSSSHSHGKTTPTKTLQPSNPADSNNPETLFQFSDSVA

| IC50 [1] | IC50 [2] | IC50 [3] | IC50 [4] | IC50 [5] | IC50 (Homo sapiens) | IC50 [6] | IC50 [7] | IC50 (Monocyte) | IC50 [8] | IC50 [9] | IC50 [10] | IC50 [11] | IC50 [12] | IC50 [13] | IC50 [14] | IC50 [15] | IC50 [16] | IC50 [17] | IC50 [18] | Structure (SMILES) | also measured |
| --- | --- | --- | --- | --- | --- | --- | --- | --- | --- | --- | --- | --- | --- | --- | --- | --- | --- | --- | --- | --- | --- |
| > 10 µM | > 10 µM | > 10 µM | > 10 µM | 0.0018 µM | 0.063 µM | > 10 µM | > 10 µM | 0.0083 µM | > 10 µM | > 10 µM | > 10 µM | > 10 µM | > 10 µM | > 10 µM | > 10 µM | > 10 µM | > 10 µM | > 10 µM | > 10 µM | CC(C)(C)c1nnc2ccc(-c3ocnc3-c3cc(F)c(F)cc3F)cn12 | IC50 [19]: > 10 µM; IC50 [20]: > 10 µM |
| > 10 µM | > 10 µM | > 10 µM | > 10 µM | 0.0028 µM | 0.18 µM | > 10 µM | > 10 µM | 0.0141 µM | > 10 µM | > 10 µM | > 10 µM | > 10 µM | > 10 µM | > 10 µM | > 10 µM | > 10 µM | > 10 µM | > 10 µM | > 10 µM | CC(C)c1nnc2ccc(-c3c[nH]nc3-c3cc(F)ccc3F)cn12 | IC50 [21]: > 10 µM; IC50 [19]: > 10 µM; IC50 [20]: > 10 µM |
| > 10 µM | > 10 µM | > 10 µM | > 10 µM | 0.0096 µM | 0.973 µM | > 10 µM | > 10 µM | 0.0714 µM | > 10 µM | > 10 µM | > 10 µM | > 10 µM | > 10 µM | > 10 µM | > 10 µM | > 10 µM | > 10 µM | > 10 µM | > 10 µM | CC(C)c1nnc2ccc(-c3ocnc3-c3ccccc3)cn12 | IC50 [19]: > 10 µM; IC50 [20]: > 10 µM |
| > 10 µM | > 10 µM | > 10 µM | > 10 µM | 0.0011 µM | 0.076 µM | > 10 µM | > 10 µM | 0.0126 µM | > 10 µM | > 10 µM | > 10 µM | > 10 µM | > 10 µM | > 10 µM | > 10 µM | > 10 µM | > 10 µM | > 10 µM | > 10 µM | CC(C)(C)c1nnc2ccc(-c3ocnc3-c3ccc(F)cc3F)cn12 | IC50 [21]: > 10 µM; IC50 [19]: > 10 µM; IC50 [20]: > 10 µM |
| > 10 µM | > 10 µM | > 10 µM | > 10 µM | 0.0076 µM | 0.865 µM | > 10 µM | > 10 µM | 0.052 µM | > 10 µM | > 10 µM | > 10 µM | > 10 µM | > 10 µM | > 10 µM | > 10 µM | > 10 µM | > 10 µM | > 10 µM | > 10 µM | CCNc1nnc2ccc(-c3ocnc3-c3ccc(F)cc3)cn12 | IC50 [21]: > 10 µM; IC50 [19]: > 10 µM; IC50 [20]: > 10 µM |
